Patent publication US8962578B2 (priority 2003, dated 2015)
Read-outs that look alike come from different tables or passages of the source.

What was measured:
Format in all cases: in vivo
Pyricularia = settings: rice
Pyricularia oryzae = settings: rice, protective, evaluation 4 days after inoculation
[1] = tested on: Erysiphe graminis f.sp. hordei; experiment: Erysiphe test (barley)/protective; settings: protective, application rate 50 g/ha, evaluation 7 days after inoculation
Protocol: Erysiphe test (barley)/protective
Solvent: 50 parts by weight of dimethylformamide
Emulsifier: 1 part by weight of alkylaryl polyglycol ether
To produce a suitable preparation of active compound, 1 part by weight of active compound or a combination of active compound is mixed with the stated amounts of solvent and emulsifier, and the concentrate is diluted with water to the desired concentration, or a commercial formulation of active compound or active compound combination is diluted with water to the desired concentration.
To test for protective activity, young plants are sprayed with the preparation of active compound at the stated application rate.
1 day after the treatment, the plants are dusted with spores of Erysiphe graminis f.sp. hordei.
The plants are placed in a greenhouse at a temperature of about 20° C. and a relative atmospheric humidity of about 80% to promote the development of mildew pustules.
Evaluation is carried out 7 days after the inoculation. 0% means an efficacy which corresponds to that of the control, whereas an efficacy of 100% means that no infection is observed.

Q: What does the source list for `N#Cc1ccccc1NC(=O)c1snc(Cl)c1Cl` [(I), 2′-cyano-3,4-dichloroisothiazole-5-carboxanilide]?
A: Efficacy in % (Pyricularia; 10 g/10 acres, b: inoculation two weeks after treatment): 12.6%; Efficacy in % (Pyricularia; 20 g/10 acres, b: inoculation two weeks after treatment): 75%

Q: `CCC1(C(=O)NC(C)c2ccc(Cl)cc2)C(C)C1(Cl)Cl` (stereo not shown) [(II), N-[1-(4-chlorophenyl)ethyl]-2,2-dichloro-1-ethyl-3-methylcyclopropane-carboxamide] was tested. Which Efficacy in % (Pyricularia oryzae; application rate 50 g/ha) did it give?
A: Its Efficacy in % is 29%.

Q: What about the Efficacy in % (Pyricularia; 100 g/10 acres, a: inoculation one week after treatment) of the same compound?
A: Its Efficacy in % is 0%.

Q: With `CC(C)(C)C(O)(CCc1ccc(Cl)cc1)Cn1cncn1` (stereo not shown) [(IV-b)] as the compound, how does the Efficacy in % (Pyricularia oryzae; application rate 100 g/ha) read?
A: Its Efficacy in % is 0%.

Q: How did the Efficacy in % (Pyricularia oryzae; application rate 100 g/ha) turn out when `OC(Cc1ccccc1Cl)(Cn1nc[nH]c1=S)C1(Cl)CC1` (stereo not shown) [(IV-c), Prothioconazole] was run?
A: Its Efficacy in % is 29%.

Q: What does the source list for `CC(NC(=O)C(C#N)C(C)(C)C)c1ccc(Cl)cc1Cl` (stereo not shown) [(IX), diclocymet]?
A: Efficacy in % (Pyricularia; 10 g/10 acres, a: inoculation one week after treatment): 37.5%; Efficacy in % (Pyricularia; 20 g/10 acres, a: inoculation one week after treatment): 83.2%; Efficacy in % (Pyricularia; 100 g/10 acres, b: inoculation two weeks after treatment): 27.8%

Q: For `O=C(Nc1ccccc1)N(Cc1ccc(Cl)cc1)C1CCCC1` [(V)], which Efficacy in % [1] is on record?
A: Its Efficacy in % is 0%.
